Calls of active or inactive are those of the source. No cut-off for these calls is given here.
Assays:
[1] = molecular target: T1, Adenosine receptor A2b (Homo sapiens) (UniProt P29275); test: Antagonist activity at human adenosine A2B receptor expressed in CHO cells assessed as inhibition of NECA-stimulated cAMP level at 1 uM by scintillation counting analysis; type: functional, cell-based
T1 sequence (whole entry): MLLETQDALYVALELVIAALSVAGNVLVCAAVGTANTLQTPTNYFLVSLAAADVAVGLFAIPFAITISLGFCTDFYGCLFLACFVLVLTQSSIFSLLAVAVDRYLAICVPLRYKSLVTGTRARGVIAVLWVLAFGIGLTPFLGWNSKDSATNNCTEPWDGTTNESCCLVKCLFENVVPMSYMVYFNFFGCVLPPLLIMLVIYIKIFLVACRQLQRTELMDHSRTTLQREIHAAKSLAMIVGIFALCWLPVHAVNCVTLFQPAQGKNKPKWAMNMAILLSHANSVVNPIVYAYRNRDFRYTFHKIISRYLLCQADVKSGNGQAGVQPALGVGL

Adenosine receptor A2a [2] = molecular target: T2, Adenosine receptor A2a (Homo sapiens, UniProt P29274); test: Displacement of [3H]ZM241385 from human adenosine A2A receptor expressed in CHO cells by scintillation counting analysis; type: cell-based
Adenosine receptor A1 [3] = molecular target: T3, Adenosine receptor A1 (Homo sapiens, UniProt P30542); test: Displacement of [3H]-DPCPX from human adenosine A1 receptor expressed in CHO cells by scintillation counting analysis; type: cell-based
T3 sequence (P30542 whole entry): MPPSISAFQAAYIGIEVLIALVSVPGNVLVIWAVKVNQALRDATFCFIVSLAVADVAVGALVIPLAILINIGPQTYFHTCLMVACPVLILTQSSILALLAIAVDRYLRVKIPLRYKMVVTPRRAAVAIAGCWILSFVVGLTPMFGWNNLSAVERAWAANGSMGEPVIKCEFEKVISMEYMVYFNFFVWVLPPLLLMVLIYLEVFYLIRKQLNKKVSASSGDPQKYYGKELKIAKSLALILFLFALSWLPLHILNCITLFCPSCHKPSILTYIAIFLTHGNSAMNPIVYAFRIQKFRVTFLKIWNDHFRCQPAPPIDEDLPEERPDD

Adenosine receptor A1 [4] = molecular target: T3, Adenosine receptor A1; test: Antagonist activity at human adenosine A1 receptor expressed in CHO cells assessed as inhibition of CCPA-stimulated cAMP level by scintillation counting analysis; type: functional, cell-based
[5] = molecular target: T4, Adenosine receptor A3 (Homo sapiens) (UniProt P0DMS8); test: Displacement of [3H]AB-MECA from human adenosine A3 receptor expressed in CHO cells at 1 uM by scintillation counting analysis relative to control; type: cell-based
T4 sequence (whole entry): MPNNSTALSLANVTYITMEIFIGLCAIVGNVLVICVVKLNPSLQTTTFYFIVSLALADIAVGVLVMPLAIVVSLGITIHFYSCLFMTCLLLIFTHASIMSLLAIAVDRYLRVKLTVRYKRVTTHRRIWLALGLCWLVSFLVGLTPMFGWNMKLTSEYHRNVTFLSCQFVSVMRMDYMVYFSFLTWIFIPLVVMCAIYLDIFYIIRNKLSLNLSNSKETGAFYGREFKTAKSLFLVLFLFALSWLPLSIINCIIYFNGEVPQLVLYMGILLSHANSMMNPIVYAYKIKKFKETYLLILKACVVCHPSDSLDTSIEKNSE

Adenosine receptor A2b = molecular target: T5, Adenosine receptor A2b (Homo sapiens, UniProt P29275); test: Antagonist activity at human adenosine A2B receptor expressed in CHO cells assessed as inhibition of NECA-stimulated cAMP level by scintillation counting analysis; type: functional, cell-based
T5 sequence (P29275 whole entry): T1 sequence (whole entry)

Adenosine receptor A2a [6] = molecular target: T2, Adenosine receptor A2a; test: Antagonist activity at human adenosine A2A receptor expressed in CHO cells assessed as inhibition of NECA-stimulated cAMP level by scintillation counting analysis; type: functional, cell-based
Adenosine receptor A2a [7] = molecular target: T2, Adenosine receptor A2a; test: Displacement of [3H]ZM241385 from human adenosine A2A receptor expressed in CHO cells at 1 uM by scintillation counting analysis relative to control; type: cell-based
[8] = molecular target: T6, Adenosine receptor A1 (Homo sapiens) (UniProt P30542); test: Displacement of [3H]-DPCPX from human adenosine A1 receptor expressed in CHO cells at 1 uM by scintillation counting analysis relative to control; type: cell-based
T6 sequence (whole entry): T3 sequence (P30542 whole entry)

Adenosine receptor A3 = molecular target: T7, Adenosine receptor A3 (Homo sapiens, UniProt P0DMS8); test: Displacement of [3H]AB-MECA from human adenosine A3 receptor expressed in CHO cells by scintillation counting analysis; type: cell-based
T7 sequence (P0DMS8 whole entry): T4 sequence (whole entry)

[9] = molecular target: T6, Adenosine receptor A1 (Homo sapiens); conditions: CHO, 100 nM
Description: Antagonist activity at human adenosine A1 receptor expressed in CHO cells assessed as inhibition of CCPA-stimulated cAMP level at 100 nM by scintillation counting analysis

T2 sequence (P29274 whole entry): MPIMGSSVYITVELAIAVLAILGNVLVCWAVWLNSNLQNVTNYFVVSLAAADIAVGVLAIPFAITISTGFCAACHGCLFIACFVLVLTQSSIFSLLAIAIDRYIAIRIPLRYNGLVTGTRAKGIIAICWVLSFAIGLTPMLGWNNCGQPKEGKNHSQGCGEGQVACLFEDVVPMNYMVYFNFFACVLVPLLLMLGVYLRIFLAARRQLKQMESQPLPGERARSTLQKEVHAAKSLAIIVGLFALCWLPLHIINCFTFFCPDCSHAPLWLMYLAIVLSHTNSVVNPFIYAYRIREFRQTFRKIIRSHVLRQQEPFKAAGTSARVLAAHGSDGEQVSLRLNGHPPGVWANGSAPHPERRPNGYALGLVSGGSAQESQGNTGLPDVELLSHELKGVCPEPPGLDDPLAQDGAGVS

Structure (SMILES) | inhibition [1] | Ki (Adenosine receptor A2a [2]) | Ki (Adenosine receptor A1 [3]) | IC50 (Adenosine receptor A1 [4]) | inhibition [5] | IC50 (Adenosine receptor A2b) | IC50 (Adenosine receptor A2a [6]) | inhibition (Adenosine receptor A2a [7]) | inhibition [8] | Ki (Adenosine receptor A3) | inhibition [9]
Nc1nc(CCCc2ccccc2)nc2cn(-c3ccccc3)nc12 | 42% | 0.055 µM | 0.00531 µM | 0.043 µM | 12% | 0.432 µM | 0.423 µM | – | – | – | –
Nc1nc(Cc2ccccc2F)nc2cn(-c3ccccc3)nc12 | – | 0.154 µM | 0.035 µM | – | 37% | 0.123 µM | – | – | – | – | –
Nc1nc(Cc2cccc(Cl)c2)nc2cn(-c3ccccc3)nc12 | 1% | – | – | – | 42% | – | – | 6% | 32% | – | –
COc1ccccc1CCCc1nc(N)c2nn(-c3ccccc3)cc2n1 | – | 0.153 µM | 0.00131 µM | 0.012 µM | 47% | 0.387 µM | – | – | – | – | –
Nc1nc(CCCc2ccc(OCc3ccccc3)cc2)nc2cn(-c3ccccc3)nc12 | 8% | – | – | – | 2% | – | – | 3% | 14% | – | –
Nc1nc(/C=C/c2ccccc2)nc2cn(-c3ccccc3)nc12 | 7% | – | 0.48 µM | – | 25% | – | – | 21% | – | – | –
COc1cccc(CCCc2nc(N)c3nn(-c4ccccc4)cc3n2)c1 | – | 0.147 µM | 0.00015 µM | 0.00241 µM | 33% | 0.334 µM | – | – | – | – | –
CC(C)c1nc(N)c2nn(-c3ccccc3)cc2n1 | 5% | – | – | – | 11% | – | – | 22% | 2% | – | –
Nc1ncnc2cn(-c3ccccc3)nc12 | – | 0.41 µM | 0.08 µM | – | 4% | 0.63 µM | – | – | – | – | –
CC(C)Cc1nc(N)c2nn(-c3ccccc3)cc2n1 | 1% | – | – | – | 13% | – | – | 50% | 49% | – | –
Nc1nc(Cc2cccc(C(F)(F)F)c2)nc2cn(-c3ccccc3)nc12 | 1% | – | – | – | 41% | – | – | 21% | 1% | – | –
COc1ccccc1Cc1nc(N)c2nn(-c3ccccc3)cc2n1 | 1% | 0.213 µM | 0.375 µM | – | – | – | – | – | – | 0.572 µM | –
CCc1nc(N)c2nn(-c3ccccc3)cc2n1 | 49% | – | 0.09 µM | – | 38% | – | – | 38% | – | – | –
Cc1cccc(Cc2nc(N)c3nn(-c4ccccc4)cc3n2)c1 | 21% | – | – | – | 11% | – | – | 31% | 41% | – | –
COc1ccc(Cc2nc(N)c3nn(-c4ccccc4)cc3n2)cc1 | 5% | – | – | – | 38% | – | – | 20% | 48% | – | –
Nc1nc(Cc2ccccc2O)nc2cn(-c3ccccc3)nc12 | 1% | 0.089 µM | 0.064 µM | – | – | – | – | – | – | 0.097 µM | –
COc1cccc(Cc2nc(N)c3nn(-c4ccccc4)cc3n2)c1 | 1% | – | 0.09 µM | – | 37% | – | – | 14% | – | – | –
Nc1nc(CCCc2ccccc2O)nc2cn(-c3ccccc3)nc12 | – | 0.102 µM | 0.00054 µM | 0.00426 µM | 36% | 0.247 µM | – | – | – | – | –
C=CCOc1ccc(CCCc2nc(N)c3nn(-c4ccccc4)cc3n2)cc1 | 3% | – | – | – | 3% | – | – | 15% | 40% | – | –
Nc1nc(Cc2ccccc2Cl)nc2cn(-c3ccccc3)nc12 | 3% | – | 0.155 µM | – | 22% | – | – | 44% | – | – | –
Nc1nc(Cc2ccc3c(c2)OCO3)nc2cn(-c3ccccc3)nc12 | 1% | – | 0.075 µM | – | 14% | – | – | 2% | – | – | –
OC[C@H]1O[C@@H](n2cnc3c(NC4CCCC4)nc(Cl)nc32)[C@H](O)[C@@H]1O | – | – | – | – | – | – | – | – | – | – | Active

Continued, values first:

inhibition [1] | Ki (Adenosine receptor A2a [2]) | Ki (Adenosine receptor A1 [3]) | IC50 (Adenosine receptor A1 [4]) | inhibition [5] | IC50 (Adenosine receptor A2b) | IC50 (Adenosine receptor A2a [6]) | inhibition (Adenosine receptor A2a [7]) | inhibition [8] | Ki (Adenosine receptor A3) | inhibition [9] | Structure (SMILES)
7% | – | 0.42 µM | – | 37% | – | – | 30% | – | – | – | Nc1nc(CCc2ccc(O)cc2)nc2cn(-c3ccccc3)nc12
– | 0.146 µM | 0.00022 µM | 0.00287 µM | 46% | 0.314 µM | – | – | – | – | – | Nc1nc(CCCc2cccc(O)c2)nc2cn(-c3ccccc3)nc12
9% | – | 0.38 µM | – | 22% | – | – | 13% | – | – | – | COc1ccc(CCc2nc(N)c3nn(-c4ccccc4)cc3n2)cc1
1% | – | – | – | 11% | – | – | 1% | 49% | – | – | Nc1nc(Cc2ccc(Cl)cc2)nc2cn(-c3ccccc3)nc12
2% | – | – | – | 17% | – | – | 35% | 15% | – | – | Nc1nc(CCc2ccccc2)nc2cn(-c3ccccc3)nc12
4% | – | – | – | 20% | – | – | 44% | 39% | – | – | Nc1nc(Cc2ccc(O)cc2)nc2cn(-c3ccccc3)nc12
30% | 0.79 µM | 0.016 µM | – | 1% | – | – | – | – | – | – | COc1ccc(CCCc2nc(N)c3nn(-c4ccccc4)cc3n2)cc1
5% | 0.722 µM | 0.018 µM | – | 20% | – | – | – | – | – | – | Nc1nc(CCCc2ccc(O)cc2)nc2cn(-c3ccccc3)nc12
1% | 0.521 µM | 0.312 µM | – | – | – | – | – | – | 0.435 µM | – | Nc1nc(Cc2cccc(O)c2)nc2cn(-c3ccccc3)nc12
21% | – | – | – | 39% | – | – | 26% | 38% | – | – | Cc1ccc(Cc2nc(N)c3nn(-c4ccccc4)cc3n2)cc1

Reference: ChEMBL document CHEMBL3352340, “7-Amino-2-phenylpyrazolo[4,3-d]pyrimidine derivatives: structural investigations at the 5-position to target human A₁ and A(2A) adenosine receptors. Molecular modeling and pharmacological studies” (Eur J Med Chem, 2014)
